Test [1] addresses T1, ENT2 (Homo sapiens, UniProt Q14542).
T1 sequence (Q14542 1-456): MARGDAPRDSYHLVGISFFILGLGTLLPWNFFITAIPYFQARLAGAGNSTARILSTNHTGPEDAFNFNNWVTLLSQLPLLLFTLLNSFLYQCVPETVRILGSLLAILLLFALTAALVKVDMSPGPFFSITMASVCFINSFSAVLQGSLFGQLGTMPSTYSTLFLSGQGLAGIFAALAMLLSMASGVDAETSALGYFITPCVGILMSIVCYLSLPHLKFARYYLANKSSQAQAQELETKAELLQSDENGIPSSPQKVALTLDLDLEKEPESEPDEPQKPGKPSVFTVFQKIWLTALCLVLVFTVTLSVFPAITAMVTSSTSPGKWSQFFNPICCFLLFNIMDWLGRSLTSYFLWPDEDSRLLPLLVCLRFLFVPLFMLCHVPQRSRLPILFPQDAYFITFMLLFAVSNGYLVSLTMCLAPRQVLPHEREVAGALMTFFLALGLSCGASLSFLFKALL
The test can be described thus: Radiolabeled BA transport in ENT2 mRNA-injected Xenopus oocytes. The class given is cell-based. Details: expressed in transfected cells; host or cells: Xenopus laevis oocytes injected with in vitro-transcribed capped mRNA from pOX-hENT2. Particulars: for fold increased transport activity compared with H2O-injected oocytes: 3H-labelled BA, Na+-containing buffer, pH 7.4. The method, then:
We used a Xenopus oocyte-based transport assay that was previously used to examine BA transport by plasma membrane–directed ENT3 with a truncated N-terminus (that harbors lysosomal targeting motif) to experimentally verify whether ENT2 is capable of translocating BAs across the cell membrane ([24]). We tested both ENT1 and ENT2 along with CNT2, a purine nucleoside-specific concentrative transporter, to investigate their capacities to transport radiolabeled BAs. […] Transport was measured at pH 7.4, which is the closest pH to the pH of the extracellular fluid in which cells are exposed to solutes such as BAs to conduct plasma membrane transport ([29]).
(§1) The generated pOX expression constructs were linearized with either the Not1 or Sac1 restriction enzymes. The digested products were purified via phenol‒chloroform extraction. The mRNAs were synthesized using mMESSAGE mMACHINE (Ambion) transcription kits according to the manufacturer’s instructions. The mRNAs were purified via lithium precipitation. Oocytes were procured from Ecocyte. Prior to experiments, procured oocytes were defolliculated by treating with collagenase A-OR II solution followed by washing with Barth’s solution. Following microscopic verification, selected oocytes were incubated to recover overnight at 25 °C in a shaker incubator. Fifty nanoliters (400–800 ng/μl) of equal amounts of mRNAs were injected into defolliculated oocytes the next day. Expression of plasmids was analyzed after RNA isolation from oocyte extracts and conducting qPCR analysis with gene-specific primers as described earlier ([30]). The injected oocytes were incubated at 15 °C for 24 h before transport assays were performed. The uptake of radiolabeled substrates was measured after a 30 min incubation in transport buffer (100 mM NaCl, 2 mM KCl, 1 mM CaCl2, 1 mM MgCl2, and 10 mM Hepes, pH 7.4) at room temperature. Uptake was terminated by washing the oocytes three times with arrest buffer containing 20 mM uridine. Individual oocytes were shaken overnight in 10% SDS for complete dissolution, and then the radioactivity was quantified with a Beckman liquid scintillation counter. The data are presented as the mean ± SD (n = 8–12 oocytes). A representative experiment from 3 to 5 independent experiments is presented.

Test [2] deals with T1, ENT2. In words: Inhibition of 3H-nucleoside influx by BAs in ENT2-expressing Xenopus oocytes. The class given is cell-based. Details: expressed in transfected cells; host or cells: Xenopus laevis oocytes injected with in vitro-transcribed capped mRNA from pOX-hENT2.
Excerpt: We expressed individual ENTs (ENT1, ENT2, and ENT3) in X. laevis oocytes (as described above) and analyzed the Ado influx from each of the ENTs in the presence of different BAs to better understand whether the inhibition profiles differ across human ENTs. […] We also conducted an analysis of the concentration-dependent inhibition of Ado transport to estimate the IC50 values of the BAs (Fig. 4, D–F and Table 2).
Inhibition of Ado influx in H2O- and ENT-injected oocytes by treatment with different BAs at 100 μM. D–F, concentration-dependent inhibition of Ado influx in ENT-injected oocytes by different BAs. The bars represent the mean ± SD (n = 8–12 oocytes). A representative experiment from 3 to 5 independent experiments is presented. Statistical analysis was performed using one-way ANOVA with Dunnett’s multiple comparisons test; ∗p < 0.032, ∗∗p < 0.0021, ∗∗∗∗p < 0.0001.
as §1, with “The uptake of radiolabeled substrates was measured after a 30 min incubation in transport buffer (100 mM NaCl, 2 mM KCl, 1 mM CaCl2, 1 mM MgCl2, and 10 mM Hepes, pH 7.4) at room temperature.” left out

Where [3] appears, read: 3H-Ado 20 μM, sodium-free buffer, read-out: ENT2 IC50 (Ado uptake).
The mark [4] stands for this setting: BA 100 μM, 3H-Ado 20 μM, sodium-free buffer.

What is called IC50 is the concentration needed to halve the response being measured. For orientation: Km means the concentration of substrate that gives half-maximal velocity.

Structures are written as SMILES. Several values for one entry are separate records, joined by “and”; a condition that tells them apart may be missing. Equal values may be shown once. Read-outs that look alike come from different tables or passages of the source.

For the compound `C[C@H](CCC(=O)O)[C@H]1CC[C@H]2[C@@H]3CC[C@@H]4C[C@H](O)CC[C@]4(C)[C@H]3C[C@H](O)[C@]12C` [DCA, deoxycholic acid], the “fold increased transport activity compared with H2O-injected oocytes” value at ENT2 [1] is recorded as 1.78 fold. Also, the “Vmax of BA transport by ENT2” value at ENT2 [1] (oocytes, Fig. 2B) turned out to be 3.359 pmol/oocyte∗30 min. Also, the half-maximal inhibitory concentration (IC50) at ENT2 [2] (setting [3]) amounted to 0.9 ± 0.2 µM. At ENT2 [2] (setting [4]), the “ENT2 % uptake inhibition (Ado)” value is 65% and 64.77%. Besides, the “inhibition of guanosine transport mediated by ENT2” value on ENT2 [2] (BA 100 μM, 3H-guanosine 20 μM) is recorded as “not statistically significant”. Moreover, the “inhibition of ENT2-mediated uridine uptake” value against ENT2 [2] (BA 100 μM, 3H-uridine 20 μM) is reported as “inhibition of the ENT2-mediated uridine uptake”.

For `C[C@H](CCC(=O)NCCS(=O)(=O)O)[C@H]1CC[C@H]2[C@@H]3[C@H](O)C[C@@H]4C[C@H](O)CC[C@]4(C)[C@H]3C[C@H](O)[C@]12C` [TCA, taurocholic acid], the “fold increased transport activity compared with H2O-injected oocytes” value on ENT2 [1] was found to be 2.23 fold. Besides, the 50% inhibitory concentration (IC50) against ENT2 [2] stood at 19.5 ± 4.5 µM. At ENT2 [2] (setting [4]), the “ENT2 % uptake inhibition (Ado)” value is reported as 70.68%.

As for `C[C@H](CCC(=O)O)[C@H]1CC[C@H]2[C@@H]3[C@H](O)C[C@@H]4C[C@H](O)CC[C@]4(C)[C@H]3C[C@H](O)[C@]12C` [CA, cholic acid], on ENT2 [1] (oocytes, Fig. 2B), the Michaelis-Menten constant (Km) was about 195 µM and the “Vmax of BA transport by ENT2” value is 2.84 pmol/oocyte∗30 min. For the same compound, the “pH dependence of 3H-CA transport mediated by ENT2” value at ENT2 [1] (pH 5.5 to pH 7.4) is reported as “not dependent on pH”. Further, on ENT2 [2] (setting [3]), the IC50 worked out at 7.1 ± 1.6 µM. For the same compound, the “ENT2 % uptake inhibition (Ado)” value on ENT2 [2] (setting [4]) was found to be 74.58%.

Values taken from PMC12152883, “Bile acids inhibit equilibrative adenosine transport to alter adenosine receptor signaling in cholestasis” (The Journal of Biological Chemistry, 2025).
